From patent publication EP0036269A1, “Substituted benzamides” (BEECHAM GROUP PLC, priority 1980, dated 1981)
Read-outs that look alike come from different tables or passages of the source.

Key:
Type in all cases: in vivo
[1] = tested on: apomorphine induced stereotypy; assay: Inhibition of apomorphine-induced biting in the rat; details: apomorphine 5 mg/kg sc, compounds administered subcutaneously 15 minutes after apomorphine, stereotypy scored for 90 mins
Procedure: (§1) Compounds were also tested for their ability to inhibit apomorphine induced stereotypy in rodents. Inactivity in these tests may be indicative of a low propensity to produce extra pyramidal side effects in man. The tests used were as follows.
Apomorphine 5 mg/kg sc induces a stereotypic gnawing behaviour in rats which can be measured by a subjective scoring system; score O - animal behaving normally; score 1 - increased locomotion activity with occassional sniffing and licking; score 2 - persistent licking of the bars of the cage with occassional biting; score 3 - more sustained biting; score 4 - intense biting at a particular part of the cage, animal no longer moving about.
Animals are individually placed in wire cages and after being allowed to become acclimatised are injected with apomorphine 5 mg/kg sc. Stereotypy is scored at 10 min intervals for 90 mins after apomorphine. Compounds are administered subcutaneously 15 minutes after the apomorphine.

[2] = tested on: apomorphine induced stereotypy; assay: Inhibition of apomorphine-induced climbing in the mouse; details: for ED50: sc, inhibition of climbing induced by apomorphine 1 mg/kg sc
Procedure: as §1
This test is based on that described by Protain, P. et al (1976) Psychopharmacol. 50, 1-6.
Apomorphine 1 mg/kg sc induced mice to climb the wall of a wire cage (inverted food hopper - 11 x 7.5 x 18 cm high). Mice acclimatised in their home cages in groups of 5 are placed under the hoppers immediately after the injection of apomorphine 1 mg/kg SC. At 10, 20 and 30 minutes after injection climbing behaviour scored. The mice are observed for 30 seconds and scored according to the position in which they spend the majority of time; score O - four paws on floor of cage; score 1 - 2 paws only on walls; score 2 - all four paws on wall of cage.
The scores at all 3 times for each mouse are summed for apomorphine only and for apomorphine plus compound groups of mice

[3] = tested on: intra-gastric pressure in the rat; assay: Increase in intragastric pressure in the rat; details: conscious restrained starved rats, 40 minute period after administration; for minimal effective dose: Rattus norvegicus, po, 40 min, read-out: minimum dose for activity
Procedure: The compounds of the Examples were tested for pharmacological activity in increasing intra-gastric pressure in the rat. Intragastric pressure changes were recorded from previously starved conscious and restrained rats using a fluid filled catheter inserted into the lumen of the stomach via a permanent gastric fistula. The catheter was connected to a physiological pressure transducer and pressure changes recorded on a hot wire pen recorder. In each animal a pre-dose period of 40 minutes was allowed to obtain a measure of spontaneous activity. An index of activity was obtained by measuring the average height of pressure waves during 10 minute periods. Values for 4 such periods were obtained during assessment of spontaneous activity and for the 40 minute period after the administration of the Compounds. Student "t" test was applied to the difference in average values obtained for spontaneous and post compound activity.

| SMILES | Inhibition of apomorphine-induced biting [1] | further results |
| --- | --- | --- |
| COc1cc(N)c(Cl)cc1C(=O)NCC1CCC2CCCCN21 (single isomer, unassigned) [Example 14 (Isomer A), (±) 4-Amino-5-chloro-2-methoxy-N-(3'-indolizidiny-methyl)-benzamide] | inactive | ED50 ([2]; Mus musculus, read-out: ED50): 20 mg/kg |
| COc1cc(N)c(Cl)cc1C(=O)NCC1CCCN2CCCCC12 (single isomer, unassigned) [Example 4 (Isomer A), (±) 4-Amino-5-chloro-2-methoxy-N-(1'-guinolizidinyl-methyl)-benzamide] | inactive |  |
| COc1cc(N)c(Cl)cc1C(=O)NCC1CCCC2CCCCN2C1 (racemic) [Example 8, (±) 4-Amino-5-chloro-2-methoxy-N-[3'-(1'-azabicyclo[5,4, O]-hendecyl-methyl)]-benzamide] | inactive |  |
| COc1cc(N)c(Cl)cc1C(=O)NCC1CC2CCCCN2C1 (racemic) [Example 12, (±) 4-Amino-5-chloro-2-methoxy-N-(2'-indolizidinyl-methyl)-benzamide] | inactive |  |
| COc1cc(N)c(Cl)cc1C(=O)NCC1CCC2CCCCN2C1 (single isomer, unassigned) [Example 2 (Isomer A), (±) 4-Amino-5-chloro-2-methoxy-N-(3'-quinolizidinyl-methyl)-benzamide] | inactive | minimal effective dose ([3]; oral): 5 mg/kg; minimum dose for activity ([3]; Subcut): 0.2 mg/kg; Inhibition of climbing ([2]; apomorphine 1 mg/kg sc, climbing scored at 10, 20 and 30 minutes): inactive |
| COc1cc(N)c(Cl)cc1C(=O)NCC1CCC2CCCCN21 (single isomer, unassigned) [14 (Isomer B), (±) 4-Amino-5-chloro-2-methoxy-N-(3'-indolizidiny-methyl)-benzamide] | inactive | minimal effective dose ([3]; Subcut): 0.2 mg/kg; ED50 [2]: 15 mg/kg |
| COc1cc(N)c(Cl)cc1C(=O)NCC1CCCN2CCCCC12 (single isomer, unassigned) [4 (Isomer B), (±) 4-Amino-5-chloro-2-methoxy-N-(1'-guinolizidinyl-methyl)-benzamide] | inactive |  |
| COc1cc(N)c(Cl)cc1C(=O)NCC1CCC2CCCCN2C1 (single isomer, unassigned) [2 (Isomer B), (±) 4-Amino-5-chloro-2-methoxy-N-(3'-quinolizidinyl-methyl)-benzamide] | inactive | minimum dose for activity ([3]; Subcut): 5.0 mg/kg; minimum dose for activity ([3]; oral): 5.0 mg/kg |
